Consider 15 compounds from patent publication US6013242A, “Tropane derivatives with selective binding to the serotonin reuptake transporters for treatment of mental illness and as intermediates in the formation of imaging diagnostic agents for depression” (Wake Forest University, priority 1998, dated 2000).

Where two headings read alike, the source gives them in different places.

Assay [1] has as its target T1, serotonin (5-HT) transporter (Rattus norvegicus, UniProt P31652).
T1 construct: from tissue; host or cells: rat frontal cortex
The assay can be described thus: displacement of [3H]paroxetine binding to 5-HT transporter. The settings on record: for 5-HT/DA potency ratio: selectivity for 5-HT over DA transporter; for 5-HT/NE potency ratio: selectivity for 5-HT over NE transporter.

Assay [2] addresses T2, dopamine (DA) transporter (Rattus norvegicus, UniProt P23977).
T2 construct: was used to label dopamine transporters in rat striatal membranes; from tissue; host or cells: rat striatum (membranes)
The assay is described as follows: displacement of [125I]RTI-55 binding to dopamine transporter. As to conditions: [125I]RTI-55, rat striatal membranes.

Assay [3] addresses T3, norepinephrine (NE) transporter (Rattus norvegicus, UniProt Q63380).
T3 construct: rat brain membranes; from tissue
The assay is described as follows: displacement of [3H]nisoxetine binding to NE transporter. As to conditions: rat brain membranes.

Assay [4] has as its target T1, serotonin (5-HT) transporter. The settings on record: earlier tropanes (U.S. Ser. No. 08/589,820), 5-HT vs dopamine transporter; cited from earlier work.
The mark [5] stands for this setting: [3H]paroxetine, rat frontal cortex.

T3 sequence (Q63380 1-617): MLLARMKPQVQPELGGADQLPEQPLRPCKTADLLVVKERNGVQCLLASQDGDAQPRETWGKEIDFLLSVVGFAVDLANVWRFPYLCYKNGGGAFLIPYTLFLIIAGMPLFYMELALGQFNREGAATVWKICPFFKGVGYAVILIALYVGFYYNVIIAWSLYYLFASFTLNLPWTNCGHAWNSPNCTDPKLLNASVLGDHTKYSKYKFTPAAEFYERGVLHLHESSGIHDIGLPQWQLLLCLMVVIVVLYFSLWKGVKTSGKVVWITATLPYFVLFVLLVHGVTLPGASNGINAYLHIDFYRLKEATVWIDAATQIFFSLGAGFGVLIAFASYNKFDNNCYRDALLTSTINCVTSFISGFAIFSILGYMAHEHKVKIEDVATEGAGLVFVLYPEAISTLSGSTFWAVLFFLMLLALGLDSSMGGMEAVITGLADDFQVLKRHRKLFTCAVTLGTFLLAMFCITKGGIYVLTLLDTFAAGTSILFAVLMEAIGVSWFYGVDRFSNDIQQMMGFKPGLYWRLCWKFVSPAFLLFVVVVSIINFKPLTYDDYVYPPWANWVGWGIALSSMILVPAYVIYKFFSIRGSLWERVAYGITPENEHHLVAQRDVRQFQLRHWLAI
T2 sequence (P23977 whole entry): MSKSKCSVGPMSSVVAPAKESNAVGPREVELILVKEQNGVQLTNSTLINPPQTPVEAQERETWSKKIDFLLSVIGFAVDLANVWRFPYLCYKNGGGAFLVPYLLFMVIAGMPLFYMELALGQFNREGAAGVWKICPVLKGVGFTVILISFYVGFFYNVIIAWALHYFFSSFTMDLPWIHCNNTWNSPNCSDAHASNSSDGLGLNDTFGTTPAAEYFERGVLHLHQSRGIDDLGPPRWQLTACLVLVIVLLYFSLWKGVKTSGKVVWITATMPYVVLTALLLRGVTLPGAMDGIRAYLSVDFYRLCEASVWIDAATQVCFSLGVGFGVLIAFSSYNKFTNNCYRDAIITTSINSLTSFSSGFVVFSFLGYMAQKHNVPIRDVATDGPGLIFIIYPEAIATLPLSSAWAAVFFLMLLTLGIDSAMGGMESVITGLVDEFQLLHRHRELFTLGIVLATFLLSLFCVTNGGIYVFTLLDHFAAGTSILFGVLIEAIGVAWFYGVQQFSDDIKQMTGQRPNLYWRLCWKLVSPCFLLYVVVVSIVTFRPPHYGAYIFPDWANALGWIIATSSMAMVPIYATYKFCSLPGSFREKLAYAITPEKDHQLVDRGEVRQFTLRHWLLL
T1 sequence (P31652 whole entry): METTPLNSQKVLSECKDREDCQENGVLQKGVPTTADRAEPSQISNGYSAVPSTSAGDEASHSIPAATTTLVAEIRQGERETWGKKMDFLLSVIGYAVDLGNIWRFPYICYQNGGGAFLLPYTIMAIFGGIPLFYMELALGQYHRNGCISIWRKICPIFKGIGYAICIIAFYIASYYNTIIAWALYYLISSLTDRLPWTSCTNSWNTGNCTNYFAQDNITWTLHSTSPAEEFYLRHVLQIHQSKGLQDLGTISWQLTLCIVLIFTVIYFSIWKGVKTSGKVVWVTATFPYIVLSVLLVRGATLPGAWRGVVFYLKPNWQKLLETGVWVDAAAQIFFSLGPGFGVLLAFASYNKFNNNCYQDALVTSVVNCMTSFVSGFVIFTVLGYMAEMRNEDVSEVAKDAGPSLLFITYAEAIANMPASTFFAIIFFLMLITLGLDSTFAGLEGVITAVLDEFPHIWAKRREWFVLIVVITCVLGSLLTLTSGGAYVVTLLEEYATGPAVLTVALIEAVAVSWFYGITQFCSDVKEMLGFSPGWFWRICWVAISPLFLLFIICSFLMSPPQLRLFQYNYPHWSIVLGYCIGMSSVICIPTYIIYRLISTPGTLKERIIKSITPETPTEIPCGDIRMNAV

Regarding `C=C(C)c1ccc([C@H]2C[C@@H]3CC[C@H]([C@H]2C(=O)CC)N3C)cc1` (relative stereo) [Example 1], in assay [1], the Ki was 0.82 ± 0.38 nM, the 5-HT/DA potency ratio stood at 8.8 and the 5-HT/NE potency ratio is recorded as 970. The IC50 in assay [2] was found to be 7.2 ± 2.1 nM. Also, in assay [3], the Ki came out at 794 ± 110 nM.
In the same order, the values of `C=C(C)c1ccc([C@H]2C[C@@H]3CC[C@@H](N3)[C@H]2C(=O)CC)cc1` (relative stereo) [Example 2] are 0.11 ± 0.02 nM, 150, 850, 16 ± 4.9 nM and 94 ± 18 nM.
Take `CCC(=O)[C@H]1[C@@H](c2ccc(-c3cccn3C)cc2)C[C@@H]2CC[C@H]1N2C` (relative stereo) [Example 3, 8-Methyl-2β-propanoyl-3β-[4-(N-methyl-2-pyrrolyl)phenyl]-8-azabicyclo[3,2,1]octane]: in assay [1] (setting [5]), the Ki turned out to be 25.6 ± 4.1 nM. In assay [1], the 5-HT/DA potency ratio was 24 and the 5-HT/NE potency ratio is > 15,000. The half-inhibitory concentration (IC50) in assay [2] is 703 ± 222 nM. The compound also displayed a Ki in assay [3] of over 10000 nM.
Regarding `CCC(=O)[C@H]1[C@@H](c2ccc(-c3cccn3C)cc2)C[C@@H]2CC[C@H]1N2` (relative stereo) [Example 4, 2.beta .-Propanoyl-3β-[4-(N-methyl-2-pyrrolyl)phenyl]-8-azabicyclo[3.2.1]octane], the inhibition constant Ki in assay [1] (setting [5]) was 1.05 ± 0.2 nM. Moreover, in assay [1], the 5-HT/DA potency ratio was found to be 590 and the 5-HT/NE potency ratio is recorded as > 25,000. The compound further showed an IC50 in assay [2] of 614 ± 98 nM. For the same compound, in assay [3], the Ki was over 10000 nM.
In the same order, the values of `CCC(=O)[C@H]1[C@@H](c2ccc(C=C(C)C)cc2)C[C@@H]2CC[C@H]1N2C` (relative stereo) [Example 5, 8-Methyl-2β-Propanoyl-3β-[4-(2-methylpropenyl)phenyl]-8-azabicyclo[3.2.1]octane] are 9.22 ± 2.4 nM, 6, 448, 51.3 ± 15.5 nM and 4130 ± 785 nM.
For the compound `CCC(=O)[C@H]1[C@@H](c2ccc(C=C(C)C)cc2)C[C@@H]2CC[C@H]1N2` (relative stereo) [Example 6, 2.beta .-Propanoyl-3β-[4-(2-methylpropenyl)phenyl]-8-azabicyclo[3.2.1]octanem], in assay [1], the inhibition constant (Ki) worked out at 0.404 ± 0.1 nM, the 5-HT/DA potency ratio was found to be 240 and the 5-HT/NE potency ratio came out at 3097. In assay [2], this compound gave a half-inhibitory concentration (IC50) of 96.3 ± 17.1 nM. Moreover, in assay [3], the Ki is 1250 ± 124 nM.
In the same order, the values of `CCC(=O)[C@H]1[C@@H](c2ccc(/C=C/I)cc2)C[C@@H]2CC[C@H]1N2` (relative stereo) [Example 11, (E)-2β-Propanoyl-3β-[4-(2-iodoethenyl)phenyl]-8-azab icyclo[3.2.1]octane] are 0.619 ± 0.078 nM, 83, 80, 51.3 ± 5.6 nM and 49.7 ± 10.6 nM.
`CCC(=O)[C@H]1[C@@H](c2ccc(/C=C(\C)I)cc2)C[C@@H]2CC[C@H]1N2` (relative stereo) [Example 12, (E)-2β-Propanoyl-3. beta.-[4-(2-iodopropenyl)phenyl]-8-azabicyclo[3.2.1]octane]: in assay [1], the inhibition constant (Ki) came out at 0.566 ± 0.027 nM, the 5-HT/DA potency ratio was 708 and the 5-HT/NE potency ratio was 645. This compound also yielded a 50% inhibitory concentration (IC50) in assay [2] of 401 ± 73 nM. For the same compound, the inhibitory constant (Ki) in assay [3] was 365 ± 118 nM.
In the same order, the values of `CCC(=O)[C@H]1[C@@H](c2ccc(/C=C(/C)I)cc2)C[C@@H]2CC[C@H]1N2` (relative stereo) [Example 13, (Z)-2β-Pr opanoyl-3β-[4-(2-iodopropenyl)phenyl]-8-azabicyclo[3.2.1]octane] are 0.131 ± 0.03 nM, 507, 509, 66.5 ± 11.1 nM and 66.7 ± 17.1 nM.
As to `CCC(=O)C1C(c2ccc3ccccc3c2)CC2CCC1N2C` (stereo not shown) [2-naphthyl derivative], the “transporter selectivity (in words)” value in assay [4] was “unselective”.
For the compound `C=C(C)c1ccc(C2CC3CCC(N3)C2C(=O)CC)cc1` (stereo not shown) [4-(1-methylethenyl)phenyl derivative], the “transporter selectivity (in words)” value in assay [4] is “most selective compound described in the previous case”.
As for `C=C(CC)c1ccc([C@H]2C[C@@H]3CC[C@H]([C@H]2C(=O)CC)N3C)cc1` [Example 7, (R)-8-Methyl-2β-propanoyl-3β-[4-(1-ethylethenyl)phenyl]-8-azabicyclo[3.2.1]octanem], in assay [1], affinity was put at a Ki of 1.13 ± 0.3 nM, the 5-HT/DA potency ratio amounted to 20 and the 5-HT/NE potency ratio is 1000. For the same compound, the concentration for half-maximal inhibition (IC50) in assay [2] came out at 22.1 ± 7.76 nM. The same compound displayed a Ki in assay [3] of 1140 ± 606 nM.
With `C=C(CC)c1ccc(C2CC3CCC(N3)C2C(=O)CC)cc1` [Example 8, (R)-2. beta.-Propanoyl-3β-[4-(1-ethylethenyl)phenyl]-8-azabicyclo[3.2.1]octane], in assay [1], the inhibition constant Ki was 0.194 ± 0.1 nM, the 5-HT/DA potency ratio was found to be 200 and the 5-HT/NE potency ratio was found to be 1790. In addition, in assay [2], the IC50 is 37.9 ± 12.9 nM. This compound showed an inhibitory constant (Ki) in assay [3] of 347 ± 54.8 nM.
As to `C/C=C/c1ccc([C@H]2C[C@@H]3CC[C@H]([C@H]2C(=O)CC)N3C)cc1` [Example 9, (R)-(E )-8-Methyl-2β-propanoyl-3β-[4-(1-propenyl)phenyl]-8-azabicyclo[3.2.1]octane], in assay [1], the affinity, expressed as Ki, was 1.17 ± 0.46 nM; the 5-HT/DA potency ratio turned out to be 1.5; the 5-HT/NE potency ratio is recorded as 250. In assay [2], this compound returned an IC50 of 1.59 ± 0.66 nM. Further, the inhibitory constant (Ki) in assay [3] turned out to be 292 ± 71.7 nM.
In the same order, the values of `CC=Cc1ccc(C2CC3CCC(N3)C2C(=O)CC)cc1` [Example 10, (R)-(E )-2β-Propanoyl-3β-[4-(1-propenyl)phenyl]-8-azabicyclo[3.2.1]octane] are 0.236 nM, 8, 108, 1.94 ± 0.96 nM and 25.6 ± 9.6 nM.
